The values that follow come from US20180194762A1 (Pharmacyclics LLC, priority 2017, published 2018).

Holding throughout (type): biochemical
Assay [1] has as its target T1, panel of kinases (Homo sapiens, UniProt P51813).
T1 sequence (P51813 1-675): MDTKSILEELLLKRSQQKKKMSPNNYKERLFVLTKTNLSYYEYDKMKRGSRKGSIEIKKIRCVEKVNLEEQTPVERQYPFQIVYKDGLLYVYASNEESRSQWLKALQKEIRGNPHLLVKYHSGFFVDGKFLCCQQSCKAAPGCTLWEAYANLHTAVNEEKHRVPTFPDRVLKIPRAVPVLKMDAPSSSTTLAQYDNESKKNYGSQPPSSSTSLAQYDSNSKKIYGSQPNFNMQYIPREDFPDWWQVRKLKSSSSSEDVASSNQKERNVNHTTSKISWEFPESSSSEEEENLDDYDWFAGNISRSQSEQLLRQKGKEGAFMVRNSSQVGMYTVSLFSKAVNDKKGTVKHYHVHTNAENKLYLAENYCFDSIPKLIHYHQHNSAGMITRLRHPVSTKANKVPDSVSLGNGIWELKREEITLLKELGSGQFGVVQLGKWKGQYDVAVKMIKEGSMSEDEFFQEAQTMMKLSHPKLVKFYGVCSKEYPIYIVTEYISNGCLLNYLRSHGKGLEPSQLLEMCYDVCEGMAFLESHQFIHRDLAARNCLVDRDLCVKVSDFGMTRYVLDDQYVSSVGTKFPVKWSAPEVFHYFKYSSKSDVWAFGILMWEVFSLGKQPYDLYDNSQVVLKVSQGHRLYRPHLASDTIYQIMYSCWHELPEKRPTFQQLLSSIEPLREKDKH
Put plainly: Inhibition of a panel of kinases (in vitro HotSpot kinase assay, 33P-ATP, 1 μM ATP), other kinases. The settings on record: BMX wild-type, read-out: BMX-WT IC50. A digest of the protocol: (§1)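 Purified kinase enzymes were incubated with an appropriate substrate and 33P-labelled ATP at 1 μM ATP. Inhibition was measured radiometrically from incorporation of the 33P label.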

The target of assay [2] is T2, Btk (Homo sapiens, UniProt Q06187).
T2 construct: purified from insect cells as a full-length construct containing a N-terminal 6X-His tag; His6 (N); made in house; host or cells: insect cells (Method C)
T2 sequence (Q06187 whole entry): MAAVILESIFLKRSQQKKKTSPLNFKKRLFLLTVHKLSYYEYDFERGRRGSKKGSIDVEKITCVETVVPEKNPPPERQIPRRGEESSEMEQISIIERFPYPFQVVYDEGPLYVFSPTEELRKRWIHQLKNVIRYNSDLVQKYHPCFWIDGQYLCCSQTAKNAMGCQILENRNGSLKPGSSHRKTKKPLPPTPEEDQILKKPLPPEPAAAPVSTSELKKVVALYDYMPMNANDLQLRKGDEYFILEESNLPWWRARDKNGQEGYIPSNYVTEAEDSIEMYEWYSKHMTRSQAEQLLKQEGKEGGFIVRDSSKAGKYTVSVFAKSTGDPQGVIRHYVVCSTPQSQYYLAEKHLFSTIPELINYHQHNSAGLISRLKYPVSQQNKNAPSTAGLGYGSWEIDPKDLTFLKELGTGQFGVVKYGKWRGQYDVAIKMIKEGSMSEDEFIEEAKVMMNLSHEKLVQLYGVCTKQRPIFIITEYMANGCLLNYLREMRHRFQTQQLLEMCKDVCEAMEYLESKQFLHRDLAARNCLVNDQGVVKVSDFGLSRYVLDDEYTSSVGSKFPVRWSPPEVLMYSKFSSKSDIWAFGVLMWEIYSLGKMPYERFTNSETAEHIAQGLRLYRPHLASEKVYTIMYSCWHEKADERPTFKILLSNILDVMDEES
Briefly: Btk in vitro inhibitory activity (one of Method A TR-FRET, Method B electrophoretic mobility shift, Method C radiometric filter binding). A digest of the protocol: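 Method A: TR-FRET with 0.5 nM Btk at [ATP]=Km, EDTA-quenched, 665/615 nm ratio; Ki(app) converted to IC50. Method B: 1 nM full-length His6 human BTK, 1 μM FAM peptide, pH 7.5, mobility-shift product/sum ratio, 12-point 4-parameter fit. Method C: radiometric filter binding, 8 nM His-tagged BTK, 0.2 mg/mL poly-Glu-Tyr.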
On the technique in general: In EMSA bound probe runs differently from free probe, usually more slowly.

The target of assay [3] is T3, TEC (Homo sapiens, UniProt P42680).
T3 sequence (P42680 1-631): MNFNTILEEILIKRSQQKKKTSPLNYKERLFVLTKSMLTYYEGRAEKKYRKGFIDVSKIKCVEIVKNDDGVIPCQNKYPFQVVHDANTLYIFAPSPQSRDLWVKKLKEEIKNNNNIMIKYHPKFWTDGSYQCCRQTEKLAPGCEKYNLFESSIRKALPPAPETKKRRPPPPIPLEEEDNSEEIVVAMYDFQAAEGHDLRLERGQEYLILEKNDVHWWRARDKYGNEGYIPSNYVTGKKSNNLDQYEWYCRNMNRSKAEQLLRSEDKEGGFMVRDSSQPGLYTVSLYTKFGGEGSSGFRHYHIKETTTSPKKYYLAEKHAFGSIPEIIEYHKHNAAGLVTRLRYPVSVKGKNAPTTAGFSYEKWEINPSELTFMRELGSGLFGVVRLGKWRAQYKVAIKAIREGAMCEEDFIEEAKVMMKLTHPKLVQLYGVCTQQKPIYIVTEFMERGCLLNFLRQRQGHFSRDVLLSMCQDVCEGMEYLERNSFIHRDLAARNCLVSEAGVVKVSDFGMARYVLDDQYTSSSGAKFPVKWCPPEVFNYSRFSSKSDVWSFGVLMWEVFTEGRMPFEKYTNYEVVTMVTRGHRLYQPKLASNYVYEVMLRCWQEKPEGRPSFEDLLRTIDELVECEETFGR
Put plainly: Inhibition of a panel of kinases (in vitro HotSpot kinase assay, 33P-ATP, 1 μM ATP). The settings on record: for IC50: HotSpot kinase assay, 1 μM ATP; for TEC/Btk: ratio of TEC IC50 to Btk IC50 (selectivity). A digest of the protocol: as §1

The mark [4] stands for this setting: wild-type Btk, read-out: Btk-WT IC50.

Read-outs that look alike come from different tables or passages of the source.

`C=CC(=O)N1CC[C@@H](Nc2n[nH]c3nccc(-c4ccc(C(C)(C)NC(=O)c5noc(C(C)(C)C)n5)cc4)c23)C1` [Example 134, 5-tert-butyl-N-{2-[4-(3-{[(3R)-1-(prop-2-enoyl)pyrrolidin-3-yl]amino}-1H-pyrazolo[3,4-b]pyridin-4-yl)phenyl]propan-2-yl}-1,2,4-oxadiazole-3-carboxamide]: the IC50 (usually the concentration at which inhibition is half-maximal) in assay [1] is 224 nM; in assay [2] (method is one of A, B or C, not stated which, read-out: IC50 values against Btk), below 10 nM; in assay [2] (setting [4]) it was 1.38 nM; in assay [3], 348 nM. Besides, the TEC/Btk in assay [3] is on record as 252.

Take `C=CC(=O)N[C@@H]1CCN(c2n[nH]c3nccc(-c4ccc(CNC(=O)c5coc(C(C)C)n5)c(F)c4)c23)C1` [Example 359, N-{[2-fluoro-4-(3-{(3R)-3-[(prop-2-enoyl)amino]pyrrolidin-1-yl}-1H-pyrazolo[3,4-b]pyridin-4-yl)phenyl]methyl}-2-(propan-2-yl)-1,3-oxazole-4-carboxamide]: the IC50 came to 58.8 nM in assay [1], 0.402 nM in assay [2] (setting [4]) and 68.5 nM in assay [3].

Turning to `CC(C)(C)c1nc(C(=O)NCc2ccc(-c3ccnc4[nH]nc(N[C@H]5CC[C@@H](N)CC5)c34)cc2F)no1` [Example 153, 5-tert-butyl-N-{[2-fluoro-4-(3-{[(1s,4s)-4-aminocyclohexyl]amino}-1H-pyrazolo[3,4-b]pyridin-4-yl)phenyl]methyl}-1,2,4-oxadiazole-3-carboxamide], the values for the IC50 in assay [1], in assay [2] (setting [4]) and in assay [3] were 2000 nM, 18.9 nM and 3200 nM, respectively. Moreover, the TEC/Btk in assay [3] worked out at 169.

For the compound `C[C@H]1CC[C@@H](Nc2n[nH]c3nccc(-c4ccc(CNC(=O)c5noc(C(C)(C)C)n5)c(F)c4)c23)CN1C(=O)NCC(F)(F)F` [Example 138, (2S,5R)-5-{[4-(4-{[(5-tert-butyl-1,2,4-oxadiazol-3-yl)formamido]methyl}-3-fluorophenyl)-1H-pyrazolo[3,4-b]pyridin-3-yl]amino}-2-methyl-N-(2,2,2-trifluoroethyl)piperidine-1-carboxamide], the IC50 in assay [1], in assay [2] (setting [4]) and in assay [3] was above 10000 nM each time.

Turning to `CC(C)(C)c1nc(C(=O)NCc2ccc(-c3ccnc4[nH]nc(N[C@@H]5CCNC5)c34)cc2)no1` [Example 174, 5-tert-butyl-N-{[4-(3-{[(3R)-pyrrolidin-3-yl]amino}-1H-pyrazolo[3,4-b]pyridin-4-yl)phenyl]methyl}-1,2,4-oxadiazole-3-carboxamide], the results for the IC50 in assay [1], in assay [2] (setting [4]) and in assay [3] were above 10000 nM, 32.7 nM and above 10000 nM, respectively. Moreover, in assay [3], the TEC/Btk is above 100.

Regarding `CCC(=O)N1CC[C@@H](Nc2n[nH]c3nccc(-c4ccc(C5(NC(=O)c6noc(C(C)(C)C)n6)CC5)cc4)c23)C1` [Compound 5, (R)-5-(tert-butyl)-N-(1-(4-(3-((1-propionylpyrrolidin-3-yl)amino)-1H-pyrazolo[3,4-b]pyridin-4-yl)phenyl)cyclopropyl)-1,2,4-oxadiazole-3-carboxamide], the IC50 in assay [1] was 4350 nM; in assay [2] (setting [4]) it was 52.7 nM; in assay [3], 2590 nM. The TEC/Btk in assay [3] is 49.

On to `CN(C)C(=O)N1CC[C@H](Nc2n[nH]c3nccc(-c4ccc(CNC(=O)c5noc(C(C)(C)C)n5)c(F)c4)c23)C1` [Example 113, 5-tert-butyl-N-{[4-(3-{[(3S)-1-(dimethylcarbamoyl)pyrrolidin-3-yl]amino}-1H-pyrazolo[3,4-b]pyridin-4-yl)-2-fluorophenyl]methyl}-1,2,4-oxadiazole-3-carboxamide], for which the results for the IC50 in assay [1], in assay [2] (setting [4]) and in assay [3] were 280 nM, 10.4 nM and 1710 nM, respectively. For the same compound, in assay [3], the TEC/Btk is 164.

As to `C=CC(=O)N1CC[C@H](Nc2n[nH]c3nccc(-c4ccc(CNC(=O)c5ccc(C(C)(C)C)cc5)c(F)c4)c23)C1` [Compound 44, (S)—N-(4-(3-((1-acryloylpyrrolidin-3-yl)amino)-1H-pyrazolo[3,4-b]pyridin-4-yl)-2-fluorobenzyl)-4-(tert-butyl)benzamide], the results for the IC50 in assay [1], in assay [2] (setting [4]) and in assay [3] were 5390 nM, 68.2 nM and 7940 nM, respectively. Also, the TEC/Btk in assay [3] was determined as 116.

Take `C=CC(=O)N[C@@H]1CCN(c2n[nH]c3nccc(-c4ccc(CNC(=O)c5cc(C(C)C)no5)c(F)c4)c23)C1` [Example 184, N-{[2-fluoro-4-(3-{(3R)-3-[(prop-2-enoyl)amino]pyrrolidin-1-yl}-1H-pyrazolo[3,4-b]pyridin-4-yl)phenyl]methyl}-3-(propan-2-yl)-1,2-oxazole-5-carboxamide]: the IC50 in assay [1] turned out to be 30.7 nM; in assay [2] (setting [4]) it was 0.0776 nM; in assay [3], 33.4 nM. The TEC/Btk in assay [3] came to 430.

In the case of `C=CC(=O)N1CC[C@@H](Nc2n[nH]c3nccc(-c4ccc(CNC(=O)c5ccc6ocnc6c5)c(F)c4)c23)C1` [Example 379, (R)-N-{[2-fluoro-4-(3-{[1-(prop-2-enoyl)pyrrolidin-3-yl]amino}-1H-pyrazolo[3,4-b]pyridin-4-yl)phenyl]methyl}-1,3-benzoxazole-5-carboxamide], the results for the IC50 in assay [1], in assay [2] (setting [4]) and in assay [3] were 141 nM, 64.1 nM and 741 nM, respectively.

In the case of `C[C@@H]1[C@H](Nc2n[nH]c3nccc(-c4ccc(CNC(=O)c5noc(C(C)(C)C)n5)c(F)c4)c23)CCCN1C(=O)C1CC1` [Example 126, 5-tert-butyl-N-{[4-(3-{[(2R,3R)-1-cyclopropanecarbonyl-2-methylpiperidin-3-yl]amino}-1H-pyrazolo[3,4-b]pyridin-4-yl)-2-fluorophenyl]methyl}-1,2,4-oxadiazole-3-carboxamide], the IC50 in assay [1] was determined as 5450 nM; in assay [2] (setting [4]), 38.4 nM; in assay [3] it was 4430 nM. Moreover, the TEC/Btk in assay [3] came out at 115.

Take `CC(C)c1noc(C(=O)NCc2ccc(-c3ccnc4[nH]nc(N5CC[C@@H](N)C5)c34)cc2F)n1` [Example 181, N-[(4-{3-[(3R)-3-aminopyrrolidin-1-yl]-1H-pyrazolo[3,4-b]pyridin-4-yl}-2-fluorophenyl)methyl]-3-(propan-2-yl)-1,2,4-oxadiazole-5-carboxamide]: the IC50 worked out at 761 nM in assay [1], 6.04 nM in assay [2] (setting [4]) and 1000 nM in assay [3]. For the same compound, the TEC/Btk in assay [3] worked out at 166.

`C[C@@H](NC(=O)c1nc(C(C)(C)C)no1)c1ccc(-c2ccnc3[nH]nc(N4CCOCC4)c23)cc1` [Example 219, 3-tert-butyl-N-[(1R)-1-{4-[3-(morpholin-4-yl)-1H-pyrazolo[3,4-b]pyridin-4-yl]phenyl}ethyl]-1,2,4-oxadiazole-5-carboxamide]: the IC50 in assay [1] came out at 582 nM; in assay [2] (setting [4]) it was 0.186 nM; in assay [3], 781 nM. For the same compound, the TEC/Btk in assay [3] is listed as 4199.

In the case of `CC(C)(C)c1nc(C(=O)NC2(c3ccc(-c4ccnc5[nH]nc(N[C@@H]6CCCNC6)c45)cc3)CC2)no1` [Example 70, 5-tert-butyl-N-{1-[4-(3-{[(3R)-piperidin-3-yl]amino}-1H-pyrazolo[3,4-b]pyridin-4-yl)phenyl]cyclopropyl}-1,2,4-oxaidazole-3-carboxamide], the IC50 in assay [1] is above 10000 nM; in assay [2] (setting [4]), 180 nM; in assay [3] it was above 10000 nM. Moreover, the TEC/Btk in assay [3] was above 100.
